Consider seven compounds from patent US4533498A, “Compounds” (Beecham Group p.l.c., priority 1983, dated 1985).

Experiment [1] has as its system intragastric pressure. In words: Increase in intragastric pressure (conscious restrained rats, gastric fistula). The conditions noted are these: 40 minute period after administration, Student's t test vs spontaneous activity. It is filed as in vivo, rat. The procedure: Intragastric pressure changes were recorded from previously starved conscious but restrained rats using a saline filled catheter inserted into the lumen of the stomach via a permanent gastric fistula. The catheter was connected to a physiological pressure transducer and pressure changes recorded on a hot wire pen recorder. In each animal a pre-dose period of 40 minutes was allowed to obtain a measure of spontaneous activity. An index of activity was obtained by measuring the average height of pressure waves during 10 minute periods. Values for 4 such periods were obtained during assessment of spontaneous activity and for a 40 minute period after administration of compound. Student's `t` test was applied to the difference in average values obtained for spontaneous and post compound activity.

The test system of experiment [2] is dopamine receptor. Nature of the experiment: Dopamine receptor blocking activity in the central nervous system: inhibition of apomorphine induced climbing in the mouse. Type of experiment: in vivo. The conditions noted are these: apomorphine 1 mg/kg s.c.; for inhibition of apomorphine induced climbing, result in words: printed beside ED50 10 mg/kg s.c.; for ED50 (inhibition of apomorphine induced climbing): scored at 10, 20 and 30 minutes. As for the experimental part:
Compounds were tested for inhibition of apomorphine induced climbing in the mouse. The test is based on that described by Protais, P., Constantin, J. and Schwartz, J. C. (1976), Psychopharmacology, 50, 1-6.
Apomorphine 1 mg/kg s.c. induces mice to climb the wall of a wire cage (inverted food hopper--11×7.5×18 cm high). Mice acclimatised in their home cages in groups of 5 are placed under the hoppers immediately after the injection of apomorphine 1 mg/kg s.c. At 10, 20 and 30 minutes after injection climbing behaviour is scored. The mice are observed for 30 seconds and scored according to the position they spend the majority of time in, score 0--four paws on floor of cage; score 1--fore paws only on walls; score 2--all paws on wall of cage. The scores at all 3 times and for each mouse are summed and mice drug treated compared to mice receiving apomorphine only. A saline only treated group is also included and any score, generally >5% of maximum taken into account.

Experiment [3] relates to vomiting response. Nature of the experiment: Anti-emetic activity in the dog: inhibition of apomorphine-induced vomiting response. It is filed as in vivo. The conditions noted are these: s.c. 30 minutes prior to apomorphine HCl 0.1 mg/kg s.c.; for ED50: Canis lupus familiaris, sc. As for the experimental part: Compounds were administered subcutaneously 30 minutes prior to administration of a standard dose of apormorphine HCl (0.1 mg/kg subcutaneously) and the vomiting response compared to that obtained when the same animals were dosed with apomorphine HCl and vehicle only. The ED50 value for inhibition of the vomiting response determined for compounds (17), (29) and (30) was 0.1 mg/kg, and for compound (19) 0.01 mg/kg s.c.

Turning to `COc1cc(N)c(Cl)cc1C(=O)NC1CC2CC1CN2C` (racemic) [Compound 26, (±) 4-amino-5-chloro-2-methoxy-N-[5-(2-methyl-2-azabicyclo(2.2.1)heptyl)]benzamide], the “index of activity (average height of pressure waves) post administration” value (from here on “index of activity”) in experiment [1] (0.5 mg/kg s.c.) is listed as “significantly increased the index of activity”. In addition, in experiment [2], the “inhibition of apomorphine induced climbing, result in words” value is “inactive” and the “ED50 (inhibition of apomorphine induced climbing)” value came to 10 mg/kg s.c.

Turning to `COc1cc(N)c(Cl)cc1C(=O)NC1CC2CCC1CN2Cc1ccccc1` (racemic) [Compound 19, (±)-4-Amino-5-chloro-2-methoxy-N-(5-[2-benzyl-2-azabicyclo[2,2,2]octyl]benzamide], in experiment [1] (1.0 mg/kg s.c.), the “index of activity” value is on record as “similarly active”. For the same compound, in experiment [3], it took a dose of 0.01 mg/kg to reach the 50% effect level (ED50). Further, the “ED50 (inhibition of apomorphine induced climbing)” value in experiment [2] was 0.36 mg/kg s.c.

As to `COc1cc(N)c(S(C)(=O)=O)cc1C(=O)NC1CC2CCC1CN2Cc1ccccc1` (stereo not shown) [Compound 29, 4-amino-2-methoxy-5-methylsulphonyl-N-[5-(2-benzyl-2-azabicyclo(2.2.2)octyl)]benzamide], in experiment [3], the ED50 (as a rule, the dose that gives a 50% effect, or the effect in half of the subjects) was found to be 0.1 mg/kg.

With `COc1cc(N)c(Cl)cc1C(=O)NC1CC2CCC1CN2C` (racemic) [Compound 17, (±)-4-Amino-5-chloro-2-methoxy-N-(5-[2-methyl-2-azabicyclo[2,2,2]octyl]benzamide], the “index of activity” value in experiment [1] (0.5 mg/kg s.c.) is reported as “significantly increased the index of activity”. The compound further came in with an ED50 in experiment [3] of 0.1 mg/kg. The “ED50 (inhibition of apomorphine induced climbing)” value in experiment [2] came out at 7.7 mg/kg s.c.

In the case of `COc1cc(N)c(Cl)cc1C(=O)NC1CC2CCC1CN2C` (racemic) [Compound 18, (±) 4-Amino-5-chloro-2-methoxy-N-(5-[2-methyl-2-azabicyclo[2,2,2]octyl]benzamide], the “index of activity” value in experiment [1] (0.5 mg/kg s.c.) was “significantly increased the index of activity”. Also, in experiment [2], the “inhibition of apomorphine induced climbing, result in words” value is “inactive” and the “ED50 (inhibition of apomorphine induced climbing)” value was 10 mg/kg s.c.

As to `COc1cc(N)c(Cl)cc1C(=O)NC1CC2CCC1CN2Cc1ccccc1` (racemic) [Compound 20, (±) 4-Amino-5-chloro-2-methoxy-N-(5-[2-benzyl-2-azabicyclo[2,2,2]octyl])benzamide], in experiment [1] (0.5 mg/kg s.c.), the “index of activity” value was “significantly increased the index of activity”. The “ED50 (inhibition of apomorphine induced climbing)” value in experiment [2] is on record as 3.6 mg/kg s.c.

For `COc1cc(N)c(S(C)(=O)=O)cc1C(=O)NC1CC2CCC1CN2Cc1ccccc1` (stereo not shown) [Compound 30, 4-amino-2-methoxy-5-methylsulphonyl-N-[5-(2-benzyl-2-azabicyclo(2.2.2)octyl)]benzamide], in experiment [3], the “ED50 value for inhibition of the vomiting response” value was found to be 0.1 mg/kg.
